Tested on: SYO-1 tumor spheroids, viability % test/control
Assay: Anticancer human tumor SYO-1 cell line growth inhibition;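 further: spheroids exposed to agents for 7 days before viability read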;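 on viability, T/C: 100% = DMSO vehicle control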
Conditions: spheroids with HUVEC and MSC; for IC50: curve of first compound; for viability, T/C: stronger effect = lower value
Text: Multicellular complex tumor spheroid response to DNA repair inhibitors in combination with DNA-damaging drugs
This study explores the anticancer activities of DNA-damaging drugs and inhibitors of DNA damage repair, both as single agents and in combinations. Complex tumor spheroids comprised of malignant cells, endothelial cells and mesenchymal stem cells served as an in vitro model for human solid tumors. This model system incorporates physiologically relevant features and patient-derived or established malignant cell lines with clinically relevant genetic alterations from many tumor types. Twenty-six patient-derived or established malignant cell lines were evaluated representing sarcoma, melanoma, small cell lung cancer (SCLC), non-small cell lung cancer (NSCLC), as well as bladder, ovarian and pancreatic cancers. The concentration ranges selected for each drug and investigational agent were based upon clinically achievable concentrations if the clinical Cmax of the agent was known.
Compounds. The drugs and compounds olaparib (NSC753686), talazoparib (NSC767125), berzosertib (NSC777718), elimusertib (NSC800525), nedisertib (NSC802822), VX-984 (NSC792969), AZD-1390 (NSC803789), temozolomide (NSC362856), topotecan (NSC609699), trabectedin (NSC813783), staurosporine (NSC755774), and gemcitabine (NSC613327) were obtained from the National Cancer Institute (NCI) Developmental Therapeutics Program Chemical Repository. The FDA-approved anticancer drug set is available from the Developmental Therapeutics Program at https://dtp.cancer.gov/organization/dscb/obtaining/available_plates.htm. […] The stock solutions were prepared in dimethyl sulfoxide (DMSO, Sigma-Aldrich, St. Louis, MO, cat. D2650) at 400-fold the tested concentration and stored at -70 degrees C. Prior to their use, the stock solutions were diluted in fresh medium and the final DMSO concentration in the assay was 0.25% (v/v). All drugs and investigational agents were tested over a range starting from a high concentration at or near the clinical Cmax and decreasing in half-log increments. If the clinical Cmax for an agent had not been determined, the highest concentration tested was 10 microM.
Cell Lines. The patient-derived cancer cell (PDC) lines: 156681-154-R-J1-PDC, 283228-195-R-J1-PDC, 287954-098-R-J1-PDC, 292921-168-R-J2-PDC, 349418-098-R-PDC, 425362-245-T-J1-PDC, 556581-035-R-J1-PDC, and BL0293-F563-PDC were received from the NCI Patient-Derived Models Repository (PDMR, https://pdmr.cancer.gov). The established cell lines HS-SY-2 (RRID:CVCL_8719), MPNST, and SYO-1 (RRID:CVCL_7146) were obtained from the Sloan Kettering Institute. The alveolar soft parts sarcoma cell line ASPS-1 (RRID:CVCL_S738) was established at the NCI and grown from internal seed stocks. The following established cell lines were purchased from the American Type Culture Collection (ATCC, Manassas, VA): G-401 (ATCC, cat. CRL-1441, RRID:CVCL_0270), SW982 (ATCC, cat. HTB-93, RRID:CVCL_1734), VA-ES-BJ (ATCC, cat. CRL-2138, RRID:CVCL_1785), NCI-H719 (ATCC, cat. CRL-5837, RRID:CVCL_1582), NCI-H196 (ATCC, cat. CRL-5823, RRID:CVCL_1509), NCI-H841 (ATCC, cat. CRL-5845, RRID:CVCL_1595), NCI-H1618 (ATCC, cat. CRL-5879, RRID:CVCL_1480), NCI-H1876 (ATCC, cat. CRL-5902, RRID:CVCL_1503), DMS 114 (ATCC, cat. CRL-2066; RRID:CVCL_1174), NCI-H211 (ATCC, cat. CRL-5824; RRID:CVCL_1529), and SW 1271 (ATCC, cat. CRL-2177, RRID:CVCL_1716). The small cell lung cancer cell line COR-L88 was purchased from Sigma-Aldrich (cat. 92031917-1VL, RRID:CVCL_1141). The non-small cell lung cancer cell lines NCI-H226 (RRID:CVCL_1544) and NCI-H322M (RRID:CVCL_1557) were established at the NCI and grown from internal seed stocks. Pooled donor human umbilical vein endothelial cells (HUVEC, Lonza, cat. CC-2519) and human mesenchymal stem cells (hMSC, Lonza, cat. PT-2501) were purchased from Lonza (Walkersville, MD).
Cell Culture. All cells were maintained in an incubator at 37 degrees C and 5% CO2 with 95% humidity. […]

Cc1sc2c(c1C)C(c1ccc(Cl)cc1)=NC(CC(=O)Nc1ccc(O)cc1)c1nnc(C)n1-2 (stereo not given) + CC[C@@]1(O)C(=O)OCc2c1cc1n(c2=O)Cc2cc3c(CN(C)C)c(O)ccc3nc2-1
IC50 (second compound 0.003 µM): 43.4 nM | IC50 (second compound 0.00949 µM): < 9.49 nM | IC50 (second compound 0.03 µM): < 9.49 nM | IC50 (second compound 0.0949 µM): < 9.49 nM | IC50 (second compound 0.3 µM): < 9.49 nM | viability, T/C (second compound 0.003 µM, first compound 0.00949 µM): 84.9% | viability, T/C (second compound 0.003 µM, first compound 0.03 µM): 70.3% | viability, T/C (second compound 0.003 µM, first compound 0.0949 µM): 7.08% | viability, T/C (second compound 0.003 µM, first compound 0.3 µM): 0.99% | viability, T/C (second compound 0.003 µM, first compound 0.949 µM): 0.77% | viability, T/C (second compound 0.003 µM, first compound 3 µM): 0.63% | viability, T/C (second compound 0.00949 µM, first compound 0.00949 µM): 6.31% | viability, T/C (second compound 0.00949 µM, first compound 0.03 µM): 3.24% | viability, T/C (second compound 0.00949 µM, first compound 0.0949 µM): 1.18% | viability, T/C (second compound 0.00949 µM, first compound 0.3 µM): 1.31% | viability, T/C (second compound 0.00949 µM, first compound 0.949 µM): 0.7% | viability, T/C (second compound 0.00949 µM, first compound 3 µM): 0.6% | viability, T/C (second compound 0.03 µM, first compound 0.00949 µM): 1.74% | viability, T/C (second compound 0.03 µM, first compound 0.03 µM): 1.47% | viability, T/C (second compound 0.03 µM, first compound 0.0949 µM): 1.35% | viability, T/C (second compound 0.03 µM, first compound 0.3 µM): 7.03% | viability, T/C (second compound 0.03 µM, first compound 0.949 µM): 0.62% | viability, T/C (second compound 0.03 µM, first compound 3 µM): 0.49% | viability, T/C (second compound 0.0949 µM, first compound 0.00949 µM): 1.62% | viability, T/C (second compound 0.0949 µM, first compound 0.03 µM): 1.4% | viability, T/C (second compound 0.0949 µM, first compound 0.0949 µM): 0.87% | viability, T/C (second compound 0.0949 µM, first compound 0.3 µM): 1.04% | viability, T/C (second compound 0.0949 µM, first compound 0.949 µM): 0.66% | viability, T/C (second compound 0.0949 µM, first compound 3 µM): 0.74% | viability, T/C (second compound 0.3 µM, first compound 0.00949 µM): 1.64% | viability, T/C (second compound 0.3 µM, first compound 0.03 µM): 1.48% | viability, T/C (second compound 0.3 µM, first compound 0.0949 µM): 1.05% | viability, T/C (second compound 0.3 µM, first compound 0.3 µM): 0.75% | viability, T/C (second compound 0.3 µM, first compound 0.949 µM): 0.47% | viability, T/C (second compound 0.3 µM, first compound 3 µM): 0.55%

From PubChem BioAssay AID1845219 (Molecular Pharmacology Branch, DTP, NCI, 2023)
